Results as given in PMC7508583, “Discovery and Preclinical Development of Antigiardiasis Fumagillol Derivatives” (Antimicrobial Agents and Chemotherapy, 2020).
≈ marks a conversion by molar mass, not a printed value. Where two headings read alike, the source gives them in different places.

Experiments:
[1] = tested on: E. histolytica HM1:IMSS trophozoites; assay: Trophozoite growth inhibition, ATP content (ATPlite) assay; type: cell-based; settings: Entamoeba histolytica, 72 h, read-out: Mean [IC50 ± SE(IC50)] E. histolytica HM1: IMSS
Experimental: (§1) Antigiardia assays followed by enzyme inhibition determination facilitated the selection of compounds for permeation and stability studies by in vitro methods, prior to advancing to in vivo studies. Compound potency was evaluated first by measuring G. lamblia trophozoite growth as a function of the compound concentration and calculating the IC50 values. Potency in Entamoeba histolytica trophozoites was also determined because of the early report that fumagillin cured amebiasis ([19]). The intent was to test whether the compounds would be suitable to treat gastrointestinal amebiasis rather than the invasive form of the disease, given that the designed strategy was based on reducing compound permeation across the epithelial cell barrier. […] Trophozoite growth was determined by monitoring the ATP cell content using a high-throughput homogeneous assay developed previously for G. lamblia ([57]). The ATP content serves as a marker of cell integrity since ATP degrades rapidly when cells die and the luminescence signal generated by luciferase requires ATP. The same assay was also adopted in 96-well plates for E. histolytica trophozoite growth measurement, as described in Materials and Methods. A similar E. histolytica trophozoite ATP content assay was described previously ([58]). Fumagillin, TNP-470, and a standard-of-care drug (metronidazole) served as positive controls, and cells without the drug (in the presence of 0.5% dimethyl sulfoxide [DMSO]) served as the negative control.
(§2) E. histolytica strain HM1:IMSS trophozoites were grown at 37°C in TYI-S-33 medium supplemented with penicillin (100 U/ml) and streptomycin sulfate (100 μg/ml) ([65]). Trophozoites were grown anaerobically in borosilicate tubes or T25 flasks, and subcultures were made 1 to 2 times a week. Trophozoites were detached for inoculation by chilling the cultures on ice for 20 min.
The growth inhibition assays were performed in duplicate, once for each compound, for all compounds except fumagillin, which served as a positive control and whose inhibitory ability was measured multiple times as new sets of compounds were tested. All dry compounds except for fumagillin were dissolved in dimethyl sulfoxide (DMSO; Sigma) at a stock concentration of 10 mM and then diluted 1:100 in growth medium to a final compound concentration of 100 μM; fumagillin was diluted to 20 μM. Compound solution aliquots (100 μl) were prepared by 3-fold serial dilutions in growth medium containing 0.5% DMSO and distributed into 96-well assay plates. This was followed by the addition of 10 μl G. lamblia or E. histolytica culture containing 10,000 trophozoites. Fumagillin served as a positive control, and the medium-diluted DMSO alone served as a negative control. The assay plates were placed in a BD GasPak EZ container system (BD Diagnostics) to create an anaerobic growth environment. […] Following incubation, 70 μl/well of the ATPlite reagent (PerkinElmer) was added to the assay plates for one-step lysis and ATP level detection. The luminescent signals of the assay plates were measured on an EnSpire 2300 plate reader (PerkinElmer). Concentration-response titration points for each compound were fitted to a 4-parameter logistic nonlinear regression model using the KaleidaGraph tool, yielding the IC50 value and standard error (SE).

[2] = tested on: G. lamblia GS trophozoites; assay: as above; type: cell-based, Giardia lamblia; settings: Giardia duodenalis, 72 h, read-out: Mean [IC50 ± SE(IC50)] G. lamblia GS
Experimental: as §1
Trophozoites of G. lamblia isolates WB and GS were grown anaerobically in borosilicate glass screw-cap culture tubes (Fisher Scientific) at pH 7.0 in Keister’s modified TYI-S-33 medium (ATCC). The medium was supplemented with 10% heat-inactivated bovine serum (Sigma-Aldrich) and 0.05% bovine bile (Sigma-Aldrich). To attain low-oxygen-tension conditions, the tubes were filled to 85% to 90% of their total volume capacity and incubated without shaking at 37°C. Subcultures (2 × 10^5 trophozoites per tube) were made three times a week. Detachment of trophozoites for inoculation was achieved by chilling the cultures on ice for 20 min. Culturing and detachment of metronidazole-resistant G. lamblia assemblage A 713M3 and assemblage B 1279-M1 trophozoites followed the same protocol, except that the growth medium was supplemented with metronidazole, with the concentration gradually being increased to 10 μM.
The growth inhibition assays were performed in duplicate, once for each compound, for all compounds except fumagillin, which served as a positive control and whose inhibitory ability was measured multiple times as new sets of compounds were tested. All dry compounds except for fumagillin were dissolved in dimethyl sulfoxide (DMSO; Sigma) at a stock concentration of 10 mM and then diluted 1:100 in growth medium to a final compound concentration of 100 μM; fumagillin was diluted to 20 μM. Compound solution aliquots (100 μl) were prepared by 3-fold serial dilutions in growth medium containing 0.5% DMSO and distributed into 96-well assay plates. This was followed by the addition of 10 μl G. lamblia or E. histolytica culture containing 10,000 trophozoites. Fumagillin served as a positive control, and the medium-diluted DMSO alone served as a negative control. The assay plates were placed in a BD GasPak EZ container system (BD Diagnostics) to create an anaerobic growth environment. The sealed containers were incubated at 37°C for 72 h. Following incubation, 70 μl/well of the ATPlite reagent (PerkinElmer) was added to the assay plates for one-step lysis and ATP level detection. The luminescent signals of the assay plates were measured on an EnSpire 2300 plate reader (PerkinElmer). Concentration-response titration points for each compound were fitted to a 4-parameter logistic nonlinear regression model using the KaleidaGraph tool, yielding the IC50 value and standard error (SE).

[3] = tested on: E. histolytica HM1:IMSS trophozoites; assay: Trophozoite viability MLC determination (ameba assay); type: cell-based, Entamoeba histolytica; settings: 3 days treatment, 3 days proliferation without drug
Experimental: The inhibition of metabolism enables the organism to resume proliferation once treatment is completed. To discriminate between the lethality of the promising compounds and the induction of metabolic inactivity by the promising compounds, the minimum lethal concentration (MLC) values were determined by treating the trophozoites with the test compounds for 3 days and transferring the resulting cultures to medium lacking the compounds for 3 days of proliferation. This assay was described previously for G. lamblia ([18]) and was adapted to E. histolytica in the current study. In addition to measuring MLC values in the G. lamblia WB and GS strains and in E. histolytica, the MLCs were also measured in metronidazole-resistant G. lamblia strains 713M3 and 1279-M1, to confirm that these compounds were also effective when the metronidazole resistance mechanism evolved. […] Thus, even though fumagillin is a potent anti-G. lamblia drug, it might act in part by metabolic inhibition. Fumagillin’s IC50 and MLC values in E. histolytica were within the same range, supporting the true killing mechanism.
as §2
For the MLC assay, compounds were prepared as described above by 2-fold serial dilutions in fresh growth medium, and 50 μl was transferred into the wells of a 96-well plate in duplicate. Confluent E. histolytica trophozoites were diluted in growth medium to a density of 200 cells/μl. Fifty-microliter cultures were distributed in each well to bring the total assay volume to 100 μl. The plates were kept under an anaerobic environment for 72 h at 37°C. Each well was surveyed under a microscope to visualize trophozoite survival, mobility, and attachment. In all cases, duplicate measurements yielded identical growth/death transitions. The plates were chilled on ice for 30 min, and the entire content of each of 4 wells within the growth/death transition of one of the duplicate experiments was transferred for proliferation into 8-ml tubes containing growth medium and no drug. The tubes were incubated under anaerobic condition for 3 days at 37°C and checked under a microscope. The MLC value was the concentration in the tube with the lowest compound concentration without any live organism.

[4] = trophozoite growth, ATP content

SMILES | IC50 [1, 4] | IC50 [2, 4] | MLC E. histolytica HM:IMSS [3] | IC50 [1] | IC50 [2]
COC1C(OC(=O)NC(=O)CN2CCOCC2)CCC2(CO2)C1C1(C)OC1CC=C(C)C (stereo not drawn) [Compound 3] | 4 ± 0.1 nM | 1.5 ± 0.1 nM | 3.9 nM (≈ 1.76 ng/mL) |  | 
COC1C(OC(=O)NC(=O)CN2CCC(O)CC2)CCC2(CO2)C1C1(C)OC1CC=C(C)C (stereo not drawn) [Compound 4] | 36 ± 4.2 nM | 4.6 ± 0.4 nM | 7.8 nM (≈ 3.64 ng/mL) |  | 
CO[C@@H]1[C@H](OC(=O)Nc2ccc(C(=O)O)cc2)CC[C@]2(CO2)[C@H]1[C@@]1(C)O[C@@H]1CC=C(C)C [Compound 9, 4-(((((3R,4S,5S,6R)-5-methoxy-4-((2R,3R)-2-methyl-3-(3-methylbut-2-en-1-yl)oxiran-2-yl)-1-oxaspiro[2.5]octan-6-yl)oxy)carbonyl)amino)benzoic acid] |  | 3.8 ± 0.6 nM | 31.3 nM (≈ 13.9 ng/mL) | 6.7 ± 0.5 nM | 
CCOC(=O)Cc1ccc(NC(=O)OC2CCC3(CO3)C(C3(C)OC3CC=C(C)C)C2OC)cc1 (stereo not drawn) [Compound 11] | 43 ± 3.4 nM | 3.1 ± 0.5 nM | 125 nM (≈ 60.9 ng/mL) |  | 
COC1C(OC(=O)N2CCC(O)CC2)CCC2(CO2)C1C1(C)OC1CC=C(C)C (stereo not drawn) [Compound 16] | 2.9 ± 0.2 nM | 1.2 ± 0.04 nM | 3.9 nM (≈ 1.6 ng/mL) |  | 
CO[C@@H]1[C@H](OC(=O)/C=C/C=C/C=C/C=C/C(=O)O)CC[C@]2(CO2)[C@H]1[C@@]1(C)O[C@@H]1CC=C(C)C [Fumagillin, reference compound] |  |  | 78 nM (≈ 35.8 ng/mL) | 47.9 ± 4.8 nM | 9 ± 2.2 nM
Cc1ncc([N+](=O)[O-])n1CCO [Metronidazole, reference compound] | 318 ± 16 nM | 12700 ± 1340 nM | 1,500 nM |  | 
